What was measured:
CCK2R = system: CCK2R; design: method as in Aloj et al., 2011; Kolenc Peitl et al., 2015; details: ref Aloj et al., 2011; Kolenc Peitl et al., 2015; cited from earlier work
[1] = system: Crl:NMRI (SPF) female mice; experiment: Acute intravenous toxicity of CP04 in mice; format: in vivo; details: 178.5 μg/kg body weight iv
Source text: For acute intravenous toxicity studies Crl:NMRI (SPF) female mice provided by Charles River Laboratories (Germany) of 7–9 weeks of age and a body weight of 26–33 g were used. For extended acute single dose toxicity study in rats, 45 female and 45 male Wistar Hannover RccHan™ rats were used purchased from Harlan Laboratories, B.V. (The Netherlands). Animals were […] of age and the body weights were 195–235 g for males and 164–199 g for females. For in vivo stability tests and biodistribution/dosimetry studies healthy male Swiss albino mice from NCSR “Demokritos” Animal House were used, of 8–10 weeks of age and a body weight of 20–25 g. […]
The CP04 precursor was dissolved in phosphate buffered saline (PBS pH 7.4) and was administered at a dose of 178.5 μg/kg body weight and a dose volume of 5 mL/kg body weight into the caudal vein of two groups of three mice (Acute Intravenous Toxicity Study in Mice, Harlan Laboratories Study #D04314). […] Mortality, viability and clinical signs were recorded. […] Mortality/viability was recorded within the first 30 min and approximately 1, 2, 3 and 5 h after administration on test day 1 (with the clinical signs) and twice daily during days 2–15. Body weights were recorded on test day 1 (prior to administration) and on test days 8 and 15. […]

[2] = system: Wistar Hannover RccHan rats; experiment: Extended acute single dose intravenous (bolus) toxicity study in rats; format: in vivo
Source text: For acute intravenous toxicity studies Crl:NMRI (SPF) female mice provided by Charles River Laboratories (Germany) of 7–9 weeks of age and a body weight of 26–33 g were used. For extended acute single dose toxicity study in rats, 45 female and 45 male Wistar Hannover RccHan™ rats were used purchased from Harlan Laboratories, B.V. (The Netherlands). Animals were […] of age and the body weights were 195–235 g for males and 164–199 g for females. For in vivo stability tests and biodistribution/dosimetry studies healthy male Swiss albino mice from NCSR “Demokritos” Animal House were used, of 8–10 weeks of age and a body weight of 20–25 g. For the CCK2R-expressing tumour model, male SCID mice from NCSR “Demokritos” Animal House were used, of 6 weeks of age on arrival day and a body weight of 20 ± 2 g.
The study was designed according to the microdosing concept as described in ICH guideline M3 (R2) (“Note for guidance on non-clinical safety studies for the conduct of human clinical trials and marketing authorization for pharmaceuticals” (CPMP/ICH/286/95)). In brief, 90 rats were distributed into three dose groups, each containing fifteen animals per sex (Table 1). The animals from Group 1 received only PBS, serving as controls, while groups II and III received the CP04 solution by single intravenous (bolus) injection at a low (89 μg/kg body weight: Group 2) and a high dose (890 μg/kg body weight: Group 3). A 24-h observation period followed (Allocation A), except for five animals per sex from each group for which treatment was followed by an additional 14-day treatment-free recovery period (Allocation B).
At day 2 blood samples were withdrawn from Allocation-A animals for haematology, clinical biochemistry and samples for urinary analyses were collected. These animals were necropsied on the same day and histological examinations were performed on an extended set of organs (adrenal glands, kidneys, liver, pancreas, sternum (including bone marrow), small intestine, stomach, thyroid/parathyroid glands and gross lesions). The animals from Allocation-B remained untreated for the following 14 days, but on day 15 underwent the same procedure described above (Extended Acute Intravenous (Bolus) Toxicity Study in Rats, Harlan Study #S47364).

[3] = design: species or system mice
Procedure: Clearance kinetics in each organ was determined by exponential curve fitting. The time-integrated activity concentration (TIAC) was obtained by integration of this exponential curve folded with the decay curve of ^111In and ^177Lu.Mouse dosimetry was calculated for both ^177Lu and ^111In using the TIAC and the 25 g RADAR mouse absorbed dose rates per unit activity S for each source and target organ combination ([Keenan et al., 2010]; [Konijnenberg et al., 2014]).

Compound | CCK2R-affinity, IC50 (CCK2R) | macroscopic findings at necropsy ([1]; female mice) | survival and systemic signs of toxicity ([1]; two groups of three female mice, 14 days observation) | maximum recommended starting dose (MRSD) for a first-in-human clinical trial ([2]; HED with safety factor of 10) | human equivalent dose (HED) ([2]; NOAEL × rat km/human km = 89 μg/kg × 6/37) | reticulocyte count ([2]; male rats, 14 days after single bolus 890 μg/kg body weight) | mean food consumption and body weight gain ([2]; rats, single bolus 890 μg/kg body weight) | NOAEL initially established, based on pathological examination ([2]; rats, single intravenous bolus) | no-observed-adverse-effect-level (NOAEL) ([2]; rats, single intravenous bolus, eventually set value) | survival and clinical signs ([2]; rats, single iv bolus 89 or 890 μg/kg, 24-h study period) | Absorbed dose per injected activity, Bone [3] | Absorbed dose per injected activity, Kidneys [3] | Absorbed dose per injected activity, Large intestine [3] | Absorbed dose per injected activity, Liver [3] | Absorbed dose per injected activity, Lungs [3] | Absorbed dose per injected activity, Pancreas [3] | Absorbed dose per injected activity, Small intestine [3] | Absorbed dose per injected activity, Spleen [3] | Absorbed dose per injected activity, Stomach wall [3] | Absorbed dose per injected activity, Total body [3]
CSCC[C@H](NC(=O)[C@H](Cc1c[nH]c2ccccc12)NC(=O)CNC(=O)[C@H](Cc1ccc(O)cc1)NC(=O)[C@H](C)NC(=O)[C@@H](CCC(=O)O)NC(=O)[C@@H](CCC(=O)O)NC(=O)[C@@H](CCC(=O)O)NC(=O)[C@@H](CCC(=O)O)NC(=O)[C@@H](CCC(=O)O)NC(=O)[C@@H](CCC(=O)O)NC(=O)CN1CCN(CC(=O)O)CCN(CC(=O)O)CCN(CC(=O)O)CC1)C(=O)N[C@@H](CC(=O)O)C(=O)N[C@@H](Cc1ccccc1)C(N)=O [CP04, DOTA-(DGlu)6-Ala-Tyr-Gly-Trp-Met-Asp-Phe-NH2] | lower nM range | No macroscopic findings | All animals survived until the end of the study with no systemic signs of toxicity evident | 1.4 µg/kg | 14.4 µg/kg | marked decrease | moderate decrease | 890 μg/kg body weight | 89 μg/kg body weight | All animals survived the 24-h study period with no clinical signs being recorded |  |  |  |  |  |  |  |  |  | 
CSCC[C@H](NC(=O)[C@H](Cc1c[nH]c2ccccc12)NC(=O)CNC(=O)[C@H](Cc1ccc(O)cc1)NC(=O)[C@H](C)NC(=O)[C@@H](CCC(=O)O)NC(=O)[C@@H](CCC(=O)O)NC(=O)[C@@H](CCC(=O)O)NC(=O)[C@@H](CCC(=O)O)NC(=O)[C@@H](CCC(=O)O)NC(=O)[C@@H](CCC(=O)O)NC(=O)CN1CCN(CC(=O)O)CCN(CC(=O)O)CCN(CC(=O)O)CC1)C(=O)N[C@@H](CC(=O)O)C(=O)N[C@@H](Cc1ccccc1)C(N)=O [^177Lu-CP04, metal not drawn] |  |  |  |  |  |  |  |  |  |  | 51 mGy/MBq | 400 mGy/MBq | 36 mGy/MBq | 7 mGy/MBq | 12 mGy/MBq | 16 mGy/MBq | 36 mGy/MBq | 9 mGy/MBq | 86 mGy/MBq | 19 mGy/MBq

Source: paper PMC4948680 (European journal of pharmaceutical sciences : official …, 2016)
